Results: EP2045247B1, “Compounds for the inhibition of histone deacetylase” (NatureWise Biotech & Medicals Corporation, priority 2007, dated 2009)

Tests used:
rat C6 glioma cells [1] = experiment: Inhibition of growth of rat C6 glioma cells (observation and cell counting); format: cell-based; settings: 2.5, 5 and 10 µg/mL, 48 hours; cell density and cell counting (Fig. 1)
Protocol: The cancer cell line, rat C6 glioma cells, was cultured in Dulbecco's modified Eagle's medium (DMEM; Gibco) supplemented with penicillin G, streptomycin sulphate, 0.5 mM of L-glutamine and 10% fetal bovine serum (FBS; Gibco) at 37 °C, 5% CO2 and 95% relative humidity. For all experiments, the cells were seeded at a density of 3×10^5 per well in 6-well plates. After 24 hours, the cells were treated with different concentrations of the compound NBM-HD-1 (i.e., the compound of formula III depicted herein). After 48 hours, the cells were observed and counted. According to the results shown in Fig. 1, NBM-HD-1 can arrest the growth of rat C6 glioma cells. After the C6 glioma cells were incubated with 2.5 µg/mL (see Fig. 1(A)-b), 5 µg/mL (see Fig. 1(A)-c) and 10 µg/mL (see Fig. 1(A)-d) of NBM-HD-1 for 48 hours, the density of the cells reduced dramatically in comparison with that of control (see Fig. 1(A)-a).

rat C6 glioma cells [2] = experiment: Cell cycle analysis of C6 glioma cells, DNA content by PI staining and FACScan cytometry; format: cell-based; settings: 0, 2.5, 5 and 10 µg/mL, 72 hours (Fig. 2)
Protocol: (§1) 1×10^6 of rat C6 glioma cells were treated with various concentrations of NBM-HD-1 (0 µg/mL, 2.5 µg/mL, 5 µg/mL, and 10 µg/mL) for 72 hours. The treated cells were trysinized and collected. The cells were resuspended in 200 µL PBS and then fixed by adding 800 µL of cold 100% ethanol. The resulting cells were fixed overnight at -20[…]. The cell pellets were collected by centrifugation, resuspended in 1 mL of hypotonic buffer (0.5% Triton X-100 in PBS and 1 µg/mL RNase A), and incubated at 37 °C for 30 minutes. Then, 1 mL of PI solution (50 µg/mL) was added to the resulting cell pellets. The mixture was allowed to stand at 4[…] for 30 min. The DNA amounts of the cells were analyzed by FACScan Cytometry (Becton Dickinson) (see Fig. 2).

rat C6 glioma cells [3] = experiment: RT-PCR of cell cycle regulator mRNA in C6 glioma cells; format: cell-based; settings: GAPDH internal control (Fig. 3)
Protocol: For the rat C6 glioma cells, the cell cycle related to mRNA expression was examined by RT-PCR. The total RNAs were isolated from the treated C6 cells by using the RNeasy Mini Kit (Qiagen) according to the manufacturer's instructions. The cDNAs were produced from 500ng of total RNAs using ReverTra-Plus-TM (TOYOBO). The RT product (1µl) was amplified by PCR with primers to analyze several genes of cell cycle by using GAPDH as an internal control. According to the results of Fig. 3, NBM-HD-1 can modulate the expression of some cell cycle regulators. […] On the contrary, the expression of p21 was increased.

GFAP = GFAP expression in C6 glioma cells (immuno-fluorescent staining and RT-PCR), differentiation marker; format: cell-based, rat
Protocol: After the C6 glioma cells were incubated with 10 µg/mL NBM-HD-1 for 24 hours, they were fixed and analyzed by the traditional immuno-fluorescent staining method. Staining of glia was carried out by using glial-specific GFAP antibody (SIGMA) as the primary antibody and a fluorescence labeled rabbit immuno-globulin (SIGMA) as the secondary antibody to bind with the primary antibody. The cells which are GFAP-positive were excited by a specific light source to emit fluorescence. Also, the nuclei were stained with DAPI. […] In contrast with the control group, more GFAP proteins were detected in the photos of the cells being treated with 10 µg/mL of NBM-HD-1.
The GFAP mRNA expression was examined by RT-PCR.

acetylated histone H4 = experiment: Western blotting of hyperacetylated histone H4 in C6 glioma cell lysates; format: cell-based, rat; settings: C6 glioma cells
Protocol: Accumulation of hyperacetylated histone H4 was analyzed in the cell lysates by using Western Blotting and the antibody directed against acetylated histone H4 (Upstate). The C6 glioma cells were seeded at a density of 1×10^6 per 10cm culture dish. After 24 hours, the cells were treated with 10 µg/mL of NBM-HD-1 or 4mM sodium butyrate for several hours. The whole-cell lysates were prepared by using denaturing SDS sample buffer and then separated on 15% SDS-polyacrylamide gels. […] The amount of acetylated histones was hardly detectable in untreated C6 glioma cells. The amount of acetylated histone H4 of the cells treated with 4mM sodium butyrate for 2 hours increased. Sodium butyrate was then removed from the culture medium. After 6 hours, the amount of acetylated histone H4 decreased. The accumulation of acetylated histone H4 increased in the cells treated with NBM-HD-1 for 2 hours. […] The highest histone acetylation appeared at 6 hours after the compound had been removed. […] Because NBM-HD-1 is more hydrophobic than sodium butyrate, NBM-HD-1 can be retained in the cells longer than sodium butyrate and continuously induce the acetylation of histone H4.

MCF-7 cancer cells = experiment: Cell cycle analysis of MCF-7 cells by FACScan cytometry; format: cell-based, human; settings: 0, 2.5, 5 and 10µg/mL, 72 hours (Fig. 9)
Protocol: as §1
MCF-7 cancer cells (1×10^6) in a 100-mm dish were treated with various concentrations of NBM-HD-1 (0, 2.5, 5, and 10µg/mL) or 4mM sodium butyrate for 72 hours. The samples were prepared following the steps mentioned in [0063]. The DNA of the cells was then analyzed by FACScan cytometry (Becton Dickinson). […] The percentage of G0/G1 phase increased from 74.46 to 92.55 in a dose-dependent manner.

p21 = experiment: RT-PCR of p21 mRNA in MCF-7 cells; format: cell-based, human; settings: different doses, 24 hours (Fig. 10)
Protocol: The cell cycle related to p21 mRNA expression was examined by RT-PCR. The total RNAs were isolated from the treated MCF-7 cells and used in the RT reaction. cDNA (1µl) was used as a template to amplify p21 gene by PCR. GAPDH was used as an internal control. […] In this experiment, MCF-7 cells were treated with different doses of NBM-HD-1 for 24 hours.

For `COc1cc2c(c(OC)c1CCC(C)(C)O)C(=O)C[C@@H](c1ccc(OC)c(OC)c1C/C=C(\C)CCCC(C)(C)O)O2` [NBM-HD-1], the “growth of C6 glioma cells” value (rat C6 glioma cells [1]) was “can inhibit the growth of C6 glioma cells in a dose-dependent manner”, the “cell cycle (DNA contents)” value (rat C6 glioma cells [2]) was “cell cycle arrest on the G0/G1 phase in a dose-dependent manner” and the “expression of cyclinB1” value (rat C6 glioma cells [3]) was “decrease the expression of cyclinD1 and cyclinB1 in a dose-dependent manner”. For the same molecule, the “expression of cyclinD1” value (rat C6 glioma cells [3]) was “decrease the expression of cyclinD1 and cyclinB1 in a dose-dependent manner”, the “expression of p21” value (rat C6 glioma cells [3]) was “increased” and the “GFAP expression (immuno-fluorescent staining)” value (GFAP; 10 µg/mL, 24 hours (Fig. 4(A))) was “can induce the GFAP expression of C6 glioma cancer cells”. For the same molecule, the “GFAP mRNA expression” value (GFAP; RT-PCR (Fig. 4(B))) was “increased in a dose-dependent manner”, the “accumulation of acetylated histone H4, treated for 2 hours” value (acetylated histone H4; 10 µg/mL NBM-HD-1 or 4mM sodium butyrate, 2 hours (Fig. 5)) was “increased” and the “time of highest histone acetylation after the compound had been removed” value (acetylated histone H4; 10 µg/mL, 2 hours treatment, then removal) was 6 h. The “amount of acetylated histone H4 after removal of the compound from the culture medium” value (acetylated histone H4; up to 6 hours after removal (Fig. 5)) was “increased over time”, the “S and G2/M phases of the cells” value (MCF-7 cancer cells) was “significantly decreased both S and G2/M phases of the cells in a dose-dependent manner” and the “p21 mRNA expression” value (p21) was “induced the expression of p21 in a dose-dependent manner”.
